Data reported in article PMC9689682, “Tenebrio molitor Proteins-Derived DPP-4 Inhibitory Peptides: Preparation, Identification, and Molecular Binding Mechanism” (Foods, 2022).

Legend:
[1] = target: T1, DPP-4 (Homo sapiens, UniProt P27487); experiment: DPP-4 inhibition activity assay (Gly-Pro-p-nitroanilide substrate, OD 405 nm); format: biochemical; conditions: final concentration 1 mg/mL; n = 3; Figure 4A
T1 construct: purchased Millipore Sigma (Burlington, MA, USA)
Experimental: The inhibition of each sample on DPP-4 was assayed according to a previously described method. Briefly, 20 μL of each sample solution, 50 μL of Tris-HCl buffer (pH8.0, 100 mM), and 100 μL of substrate were mixed in a well of a 96-well plate, then incubated at 37 °C for 10 min. Afterward, the 30 μL of DPP-IV solution was added, then placed at 37 °C for 40 min incubation. Afterward, the optical density was recorded at 405 nm using a BioTek Synergy H1 microplate reader (BioTek, Winooski, VT, USA). The inhibitory effect of the samples on DPP-4 was calculated according to a previously described equation [27].

[2] = target: T1, DPP-4; conditions: Bombyx mori protein-derived peptide; cited from earlier work
Source text: GLP-1 and GIP are two crucial incretins, which have mainly contributed to the insulin response after meal intake. Suppressing the activity of DPP-4 can increase the level of active incretins, thereby decreasing blood glucose in diabetic patients. Based on the consideration of the adverse effects caused by the chemically synthesized inhibitors, some peptides with inhibitory effects on DPP-4 activity obtained from natural proteins, including milk, egg, grain, edible insects, and aquatic proteins have been widely reported. In the current study, the flavourzyme effectivel ... || It has been reported that the length and size of peptides influence their inhibitory activity against DPP-4.

T1 sequence (P27487 whole entry): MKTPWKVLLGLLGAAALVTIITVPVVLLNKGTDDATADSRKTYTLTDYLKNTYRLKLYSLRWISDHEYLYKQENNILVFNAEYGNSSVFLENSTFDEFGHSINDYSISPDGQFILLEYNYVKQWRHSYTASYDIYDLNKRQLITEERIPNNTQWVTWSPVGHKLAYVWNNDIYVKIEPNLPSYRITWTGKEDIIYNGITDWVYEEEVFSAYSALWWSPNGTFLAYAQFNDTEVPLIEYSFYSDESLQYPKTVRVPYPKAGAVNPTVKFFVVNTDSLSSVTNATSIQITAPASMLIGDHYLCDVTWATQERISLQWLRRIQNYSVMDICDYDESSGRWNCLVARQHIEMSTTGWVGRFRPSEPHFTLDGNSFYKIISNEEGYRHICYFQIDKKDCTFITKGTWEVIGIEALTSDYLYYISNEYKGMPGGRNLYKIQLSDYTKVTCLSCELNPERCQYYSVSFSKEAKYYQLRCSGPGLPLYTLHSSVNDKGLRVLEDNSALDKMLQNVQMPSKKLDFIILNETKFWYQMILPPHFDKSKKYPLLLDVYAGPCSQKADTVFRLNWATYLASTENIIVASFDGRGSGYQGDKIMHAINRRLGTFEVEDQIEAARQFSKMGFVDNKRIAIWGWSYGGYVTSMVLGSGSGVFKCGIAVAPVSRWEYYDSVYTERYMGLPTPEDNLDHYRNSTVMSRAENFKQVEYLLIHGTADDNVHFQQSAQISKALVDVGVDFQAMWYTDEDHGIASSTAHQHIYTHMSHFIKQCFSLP

Substance | inhibitory effect of the synthesized peptides on DPP-4 activity (in words) [1] | IC50 value against DPP-4 [2] [µg/mL]
SNGLPFPTRP [synthesized peptide identified from T. molitor flavourzyme hydrolysate; origin Hexamerin 1] | weak inhibitory activity | 
GLQFPTRPNF [synthesized peptide; origin 86 kDa early-staged encapsulation inducing protein] | weak inhibitory activity | 
NEAYFGFPR [synthesized peptide identified from T. molitor flavourzyme hydrolysate; origin Hexamerin 1] | weak inhibitory activity | 
LPAVTIR |  | 148
